Test results reported in US6495523B1, “Tricyclic monosaccharide derivatives useful in treating acute ischemia-induced neurodegeneration” (Ortho McNeil-Pharmaceutical, Inc., priority 1999, dated 2002).

Legend:
[1] = test system: Male Long-Evans rats; test: Neurologic assessment in rat cardiac arrest (global ischemia) model; assay type: in vivo; settings: conditions of Table 1
Method: Male Long-Evans rats (250 g) were obtained from Charles River Laboratories, Portage, Mich. The neurologic function and seizure susceptibility of each animal was tested according to the methods described below. The rats were housed in the experimental laboratory for at least 24 h prior to study to avoid transit stress and to ensure a 24-h fasting period. Only rats with blood glucose levels of 100 mg/dL or less at the end of fasting were used in the experiments.
General anesthesia was induced with ketamine (100 mg/kg, ip) and maintained with small fractional supplements as needed. Tracheal intubation was performed using a custom-made fiberoptic rodent laryngoscope and a 14-gauge polyethylene catheter. Needle electrodes were inserted in the scalp and thorax to monitor the EEG and ECG, respectively, while blood pressure was measured via an indwelling femoral arterial cannula. Body and brain temperatures were monitored by thermistors placed in the rectum and temporalis muscle, respectively. […]
Neurologic assessment was identical to that described for the use with this model by Wauquier et al. (Neuropharmacology 1989; 28(8):837-846). […] In addition to the neurodeficit score, the angle of inclination at which the rat could no longer cling to the inclined plane was determined. Performance was quantified as percent of preinsult baseline.

[2] = test system: human epilepsy; settings: adjunctive therapy or monotherapy; clinical trials; cited from earlier work

SMILES | detrimental effect on exploratory behavior (effect in words) [1] | ischemia-induced neurological deficit (effect in words) [1] | efficacy in treating simple and complex partial seizures and secondarily generalized seizures [2]
CC1(C)O[C@H]2[C@@H]3OS(=O)(=O)O[C@@H]3CO[C@@]2(COS(N)(=O)=O)O1 [RWJ-37947] | significantly reduced | significantly reduced | –
CC1(C)O[C@@H]2[C@@H](CO[C@@]3(COS(N)(=O)=O)OC(C)(C)O[C@@H]23)O1 [topiramate, 2,3:4,5-bis-O-(1-methylethylidene)-β-D-fructopyranose sulfamate] | – | – | effective
